Consider five molecules from ChEMBL document CHEMBL6096662, “Discovery and structure-activity relationship study of nicotinamide derivatives as DNA demethylase ALKBH2 inhibitors” (Eur J Med Chem, 2025).

As usually defined, the IC50 is the concentration needed to halve the response being measured. Broadly, the Kd is the constant that tells how readily two partners part at equilibrium.

For test [1], the target named is T1, DNA oxidative demethylase ALKBH2 (Homo sapiens, UniProt Q6NS38).
T1 sequence (Q6NS38 whole entry): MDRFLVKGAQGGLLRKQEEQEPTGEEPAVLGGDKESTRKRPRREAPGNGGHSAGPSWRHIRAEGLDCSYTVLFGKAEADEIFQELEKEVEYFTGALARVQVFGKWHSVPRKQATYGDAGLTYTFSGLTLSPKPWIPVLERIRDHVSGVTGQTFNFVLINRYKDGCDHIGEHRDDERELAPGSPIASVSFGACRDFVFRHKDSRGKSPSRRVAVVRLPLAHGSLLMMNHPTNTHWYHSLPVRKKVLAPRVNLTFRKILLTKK
As to the kind of experiment: Inhibition of ALKBH2 (56 to 261 residues)(unknown origin) extracted from Escherichia coli BL21 (DE3) using 5'-GAAGACCT(1meA)GGCGTCC-3'/5'- CTGGGACGCCTAGGTCTTCACTG-3' as substrate incubated for 30 mins by FP assay.

Test [2] deals with U-87 MG. The test is described as follows: Anti-viability activity against human U87 cells by MTT assay. Type of test: functional, cell-based, U-87MG ATCC. For orientation: Tetrazolium assays rely on reduction of a dye to a coloured formazan, in cell work by metabolically active cells.
In test [3] the target is T1, DNA oxidative demethylase ALKBH2. As to the kind of experiment: Binding affinity to ALKBH2 (56 to 261 residues)(unknown origin) assessed as dissociation constant by ITC assay. (In general: ITC needs no label: the signal is the heat of the interaction.)
The target is the same in test [4]. The test is described as follows: Inhibition of ALKBH2 (56 to 261 residues)(unknown origin) extracted from Escherichia coli BL21 (DE3) using 5meC DNA as substrate by FP assay.
The target is the same in test [5]. The test is described as follows: Inhibition of demethylase activity of ALKBH2 (56 to 261 residues)(unknown origin) extracted from Escherichia coli BL21 (DE3) using 1meA dsDNA as substrate incubated for 30 mins in presence of alpha-KG by methylation-sensitive restriction enzyme digestion assay.
The nature of test [6]: Inhibition of demethylase activity of ALKBH1 (19 to 369 residues)(unknown origin) extracted from Escherichia coli BL21 (DE3) using 6meA unpaired dsDNA as substrate incubated for 30 mins by methylation-sensitive restriction enzyme digestion assay. On the set-up: species or system Homo sapiens.
In test [7] the target is T2, Alpha-ketoglutarate-dependent dioxygenase alkB homolog 3 (Homo sapiens, UniProt Q96Q83).
T2 sequence (Q96Q83 whole entry): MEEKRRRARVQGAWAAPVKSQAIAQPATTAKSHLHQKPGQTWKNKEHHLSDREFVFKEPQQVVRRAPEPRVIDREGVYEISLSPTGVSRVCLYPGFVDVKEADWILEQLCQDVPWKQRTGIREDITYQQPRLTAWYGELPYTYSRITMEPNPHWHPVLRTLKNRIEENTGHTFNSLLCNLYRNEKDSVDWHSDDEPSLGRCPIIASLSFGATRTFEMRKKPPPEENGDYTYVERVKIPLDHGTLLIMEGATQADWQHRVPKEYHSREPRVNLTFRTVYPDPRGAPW
The test is described as follows: Inhibition of demethylase activity of ALKBH3 (70 to 286 residues)(unknown origin) extracted from Escherichia coli BL21 (DE3) using 1meA dsDNA as substrate incubated for 30 mins by methylation-sensitive restriction enzyme digestion assay.

The target of test [8] is RNA demethylase ALKBH5 (Homo sapiens, UniProt Q6P6C2). As to the kind of experiment: Inhibition of demethylase activity of ALKBH5 (66 to 292 residues)(unknown origin) extracted from Escherichia coli BL21 (DE3) using 6meA dsDNA as substrate incubated for 30 mins by methylation-sensitive restriction enzyme digestion assay.
Chain of RNA demethylase ALKBH5 (Q6P6C2 whole entry, the tested form may be a part): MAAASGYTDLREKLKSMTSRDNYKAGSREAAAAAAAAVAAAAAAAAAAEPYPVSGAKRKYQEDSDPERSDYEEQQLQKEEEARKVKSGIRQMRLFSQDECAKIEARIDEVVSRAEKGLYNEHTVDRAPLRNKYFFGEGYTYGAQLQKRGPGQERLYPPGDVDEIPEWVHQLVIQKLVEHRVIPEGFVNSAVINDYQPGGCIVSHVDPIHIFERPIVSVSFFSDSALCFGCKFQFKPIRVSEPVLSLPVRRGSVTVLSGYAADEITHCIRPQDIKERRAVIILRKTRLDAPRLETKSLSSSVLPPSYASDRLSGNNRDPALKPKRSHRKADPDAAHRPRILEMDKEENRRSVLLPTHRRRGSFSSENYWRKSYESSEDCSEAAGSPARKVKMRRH
Test [9] concerns the target Alpha-ketoglutarate-dependent dioxygenase FTO (Homo sapiens, UniProt Q9C0B1). The test is described as follows: Inhibition of demethylase activity of FTO (35 to 505 residues)(unknown origin) extracted from Escherichia coli BL21 (DE3) using 6meA dsDNA as substrate incubated for 30 mins by methylation-sensitive restriction enzyme digestion assay.

Chain of Alpha-ketoglutarate-dependent dioxygenase FTO (Q9C0B1 whole entry, the tested form may be a part): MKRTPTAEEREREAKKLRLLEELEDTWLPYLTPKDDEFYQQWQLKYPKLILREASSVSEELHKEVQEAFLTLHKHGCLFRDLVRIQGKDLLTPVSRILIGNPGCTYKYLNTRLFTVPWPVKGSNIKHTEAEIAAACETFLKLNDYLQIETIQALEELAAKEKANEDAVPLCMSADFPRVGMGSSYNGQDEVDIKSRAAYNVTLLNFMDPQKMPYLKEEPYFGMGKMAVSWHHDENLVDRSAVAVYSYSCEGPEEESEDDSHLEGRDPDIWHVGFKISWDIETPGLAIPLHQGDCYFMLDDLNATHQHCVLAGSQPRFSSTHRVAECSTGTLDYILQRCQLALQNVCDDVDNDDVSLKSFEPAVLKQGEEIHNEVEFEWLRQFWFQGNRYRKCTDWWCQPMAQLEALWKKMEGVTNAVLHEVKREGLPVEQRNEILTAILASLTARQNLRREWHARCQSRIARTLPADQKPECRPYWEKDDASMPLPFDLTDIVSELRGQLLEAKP

Consider `O=C(O)c1cnn(-c2ccccc2)c1`, for which the IC50 in test [1] came to 86.7 µM.

As to `O=C(O)c1cnn(-c2ccc(C(=O)N3CCCC(c4ccccc4)C3)cn2)c1` (stereo not drawn), in test [1], the IC50 came to 0.073 µM.

In the case of `COC1CCN(C(=O)c2ccc(-n3cc(C(=O)O)cn3)nc2)C1` (stereo not drawn), the IC50 in test [1] was determined as 0.378 µM.

As for `CCOC(=O)c1cnn(-c2ccc(C(=O)NC(c3ccccc3)C(C)(C)C)cn2)c1` (stereo not drawn), in test [2], the IC50 turned out to be 4.56 µM.

As to `CC(C)(C)C(NC(=O)c1ccc(-n2cc(C(=O)O)cn2)nc1)c1ccccc1` (stereo not drawn), the IC50 in test [1] is 0.031 µM; in test [4], 0.047 µM; in [5], 1.48 µM; in test [6] it was more than 200 µM; in test [7], more than 200 µM; in test [8] it was more than 200 µM. Also, the IC50 is more than 200 µM in test [9] and 103 µM in test [2]. Also, in test [3], the Kd turned out to be 0.226 µM.
